Assays:
Assay type in all cases: in vivo, human
[1] = Tardive dyskinesia reports over the clinical development program; details: 1,311 exposed healthy volunteers and patients over the clinical development program
[2] = Phase 3 study of metoclopramide nasal spray: safety, treatment-emergent adverse events
Procedure: The study was a U.S. multicenter, randomized, double-blind, placebo-controlled, parallel-group study of the efficacy and safety of IN MCP compared to placebo in adult female subjects with diabetic gastroparesis. Diabetic women with clinical symptoms attributed to diabetic gastroparesis, and documentation of delayed gastric emptying who met the protocol-specified entry criteria were randomized 1:1 in a parallel-group design to IN MCP (10 mg metoclopramide) or placebo administered as a single nasal spray four times daily; 30 minutes before meals and at bedtime for a total of four weeks. Eligible patients received a dose of IN MCP or placebo 30 minutes before meals and at bedtime daily.
Diabetic women with clinical symptoms attributed to diabetic gastroparesis and documentation of delayed gastric emptying who met the protocol-specified entry criteria were randomized to Metoclopramide Nasal Spray 10 mg or placebo administered as a single intranasal spray four (4) times daily; 30 minutes before meals and at bedtime for a total of four (4) weeks.

[3] = tested on: adult female subjects with diabetic gastroparesis; assay: Phase 3 multicenter, randomized, double-blind, placebo-controlled study of metoclopramide nasal spray: symptom efficacy (GSA scores); set-up: Estimated Mean Change from Baseline in Mean Daily GSA Total Scores (LSMean from ANCOVA) / Mean Change from Baseline in Mean Daily Nausea Score (LSMean from ANCOVA): scale not given here; details: for Mean Change from Baseline in Mean Daily Nausea Score (LSMean from ANCOVA) / Mean Change from Baseline in Mean Daily Upper Abdominal Pain Score (LSMean from ANCOVA): ITT Population with Moderate to Severe Symptoms; for Estimated Mean Change from Baseline in Mean Daily GSA Total Scores (LSMean from ANCOVA): Baseline GSA >2.7 (BOCF)
Procedure: A multicenter, randomized, double-blind, placebo-controlled clinical study of intranasal metoclopramide (“IN MCP”) in female diabetic gastroparesis patients was carried out. The study explored the use of IN MCP for the relief of symptoms associated with acute and recurrent diabetic gastroparesis in adult women. […] The study was a U.S. multicenter, randomized, double-blind, placebo-controlled, parallel-group study of the efficacy and safety of IN MCP compared to placebo in adult female subjects with diabetic gastroparesis. Diabetic women with clinical symptoms attributed to diabetic gastroparesis, and documentation of delayed gastric emptying who met the protocol-specified entry criteria were randomized 1:1 in a parallel-group design to IN MCP (10 mg metoclopramide) or placebo administered as a single nasal spray four times daily; 30 minutes before meals and at bedtime for a total of four weeks. Eligible patients received a dose of IN MCP or placebo 30 minutes before meals and at bedtime daily. A total of 205 female gastroparesis patients were enrolled. Of the total, nearly half had been identified as having moderate to severe gastroparesis. […] Diabetic women with clinical symptoms attributed to diabetic gastroparesis and documentation of delayed gastric emptying who met the protocol-specified entry criteria were randomized to Metoclopramide Nasal Spray 10 mg or placebo administered as a single intranasal spray four (4) times daily; 30 minutes before meals and at bedtime for a total of four (4) weeks. Inclusion criteria included prior diagnosis of Type 1 or Type 2 diabetes, and diagnosis of diabetic gastroparesis with delayed gastric emptying. […]

[4] = 10 mg intranasal four times daily, 4 weeks, N = 102
[5] = Week 1, 10 mg intranasal four times daily, N = 52
[6] = Week 2, 10 mg intranasal four times daily, N = 52
[7] = Week 3, 10 mg intranasal four times daily, N = 52
[8] = Week 4, 10 mg intranasal four times daily, N = 52

## CCN(CC)CCNC(=O)c1cc(Cl)c(N)cc1OC [IN MCP, 4-amino-5-chloro-N-[2-(diethylamino)ethyl]-2-methoxybenzamide]
[1]
  Reports of tardive dyskinesia: no reports of tardive dyskinesia
[2]; [4]
  Treatment-Emergent Adverse Event Epistaxis, number of subjects: 1 (1%)
  Treatment-Emergent Adverse Event Epistaxis, percent of subjects: 1 (1%)
  Treatment-Emergent Adverse Event Fatigue, number of subjects: 2 (2%)
  Treatment-Emergent Adverse Event Fatigue, percent of subjects: 2 (2%)
  Treatment-Emergent Adverse Event Headache, number of subjects: 5 (5%)
  Treatment-Emergent Adverse Event Headache, percent of subjects: 5 (5%)
  Treatment-Emergent Adverse Event Nasal discomfort, number of subjects: 1 (1%)
  Treatment-Emergent Adverse Event Nasal discomfort, percent of subjects: 1 (1%)
[2]; delivered as a nasal spray
  Central nervous system (CNS) effects that have been associated with oral and parenteral metoclopramide: no central nervous system (CNS) effects observed
[2]; intranasal
  Drug-related adverse effects: no reported drug-related adverse effects
[2]; nasal spray 10 mg four times daily, 4 weeks
  Overall safety results: no significant adverse effects
[3]; [5]
  Mean Change from Baseline in Mean Daily Nausea Score (LSMean from ANCOVA): −0.859
  Mean Change from Baseline in Mean Daily Upper Abdominal Pain Score (LSMean from ANCOVA): −0.641
[3]; [6]
  Mean Change from Baseline in Mean Daily Nausea Score (LSMean from ANCOVA): −1.149
  Mean Change from Baseline in Mean Daily Upper Abdominal Pain Score (LSMean from ANCOVA): −0.990
[3]; [7]
  Mean Change from Baseline in Mean Daily Nausea Score (LSMean from ANCOVA): −1.242
  Mean Change from Baseline in Mean Daily Upper Abdominal Pain Score (LSMean from ANCOVA): −1.194
[3]; [8]
  Mean Change from Baseline in Mean Daily Nausea Score (LSMean from ANCOVA): −1.404
  Mean Change from Baseline in Mean Daily Upper Abdominal Pain Score (LSMean from ANCOVA): −1.218
[3]; ITT, Week 1, 10 mg intranasal four times daily, N = 52
  Estimated Mean Change from Baseline in Mean Daily GSA Total Scores (LSMean from ANCOVA): −0.588
[3]; ITT, Week 2, 10 mg intranasal four times daily, N = 52
  Estimated Mean Change from Baseline in Mean Daily GSA Total Scores (LSMean from ANCOVA): −0.950
[3]; ITT, Week 3, 10 mg intranasal four times daily, N = 52
  Estimated Mean Change from Baseline in Mean Daily GSA Total Scores (LSMean from ANCOVA): −1.096
[3]; ITT, Week 4, 10 mg intranasal four times daily, N = 52
  Estimated Mean Change from Baseline in Mean Daily GSA Total Scores (LSMean from ANCOVA): −1.220
[3]; Per Protocol, Week 1, 10 mg intranasal four times daily, N = 38
  Estimated Mean Change from Baseline in Mean Daily GSA Total Scores (LSMean from ANCOVA): −0.623
[3]; Per Protocol, Week 2, 10 mg intranasal four times daily, N = 38
  Estimated Mean Change from Baseline in Mean Daily GSA Total Scores (LSMean from ANCOVA): −1.040
[3]; Per Protocol, Week 3, 10 mg intranasal four times daily, N = 38
  Estimated Mean Change from Baseline in Mean Daily GSA Total Scores (LSMean from ANCOVA): −1.286
[3]; Per Protocol, Week 4, 10 mg intranasal four times daily, N = 38
  Estimated Mean Change from Baseline in Mean Daily GSA Total Scores (LSMean from ANCOVA): −1.373
[3]; all enrolled patients across all severities of disease (205 female patients), 10 mg intranasal q.i.d.
  Efficacy versus placebo, change from baseline: no statistically significant change from baseline in efficacy versus placebo
[3]; mild gastroparesis, intranasal, same treatment regimen
  Efficacy compared to placebo: did not demonstrate statistically significant efficacy
[3]; patient segment with moderate to severe symptoms of gastroparesis, versus placebo
  Improvements in nausea and abdominal pain: clinically and statistically significant improvements
[3]; patients who entered the study with moderate to severe gastroparesis, 10 mg intranasal q.i.d.
  Efficacy versus placebo (post-hoc analysis): statistically significant efficacy

Source: patent publication US20250332125A1, “TREATMENT OF MODERATE AND SEVERE GASTROPARESIS” (priority 2016, published 2025)
